Where two headings read alike, the source gives them in different places. Blank lines part the entries; values can stand above or below the molecule they belong to.
Tests used:
p53-MDM2 interaction = target: T1, p53-MDM2 interaction (Homo sapiens, UniProt Q00987); test: AlphaLISA inhibitor screening assay, p53-MDM2 (cellular extracts with p53-His and MDM2-GST); format: biochemical; conditions: 33.3 μg/well MDM2-GST extract, Fig. 4; for concentration above which the AlphaLISA signal reached a plateau: dose-response, 1:10 serial dilutions
T1 construct: made in house; host or cells: MDM2-GST: Escherichia coli BL21 (DE3), crude extract; p53-His: HEK293T cells transfected with pEnter-p53, crude lysate
T1 sequence (Q00987 whole entry): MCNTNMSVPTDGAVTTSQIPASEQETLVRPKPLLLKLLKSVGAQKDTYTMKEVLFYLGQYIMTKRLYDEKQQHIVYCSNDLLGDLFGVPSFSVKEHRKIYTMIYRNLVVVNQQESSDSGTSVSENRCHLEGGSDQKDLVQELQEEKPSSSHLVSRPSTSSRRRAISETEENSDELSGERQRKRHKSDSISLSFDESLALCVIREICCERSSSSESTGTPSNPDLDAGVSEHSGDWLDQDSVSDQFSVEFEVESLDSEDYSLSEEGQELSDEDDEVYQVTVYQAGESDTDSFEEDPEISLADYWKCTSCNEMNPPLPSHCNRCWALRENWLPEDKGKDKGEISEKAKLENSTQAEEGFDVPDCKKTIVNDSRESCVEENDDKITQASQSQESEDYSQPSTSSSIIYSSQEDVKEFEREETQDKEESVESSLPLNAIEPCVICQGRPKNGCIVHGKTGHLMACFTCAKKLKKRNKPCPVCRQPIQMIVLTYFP

p53/MDM2 interaction = conditions: cited from earlier work
MDM2 = target: MDM2; design: method as in PMID 27764791; conditions: read-out: Ki, MDM2 antagonist; cited from earlier work

course of AlphaLISA response signal with increasing inhibitor dose (p53-MDM2 interaction; serial dilutions starting with 20 μM): continued to rise rapidly
SMILES: COc1cc(C(=O)O)ccc1NC(=O)[C@@H]1N[C@@H](CC(C)(C)C)[C@](C#N)(c2ccc(Cl)cc2F)[C@H]1c1cccc(Cl)c1F [Idasanutlin]
IC50 (p53/MDM2 interaction; read-out: IC50, p53-MDM2 inhibitor): 6 nM

SMILES: CC(C)(C)C[C@@H]1N[C@@H](C(=O)N[C@H]2CC[C@H](O)CC2)[C@H](c2cccc(Cl)c2F)[C@]12C(=O)Nc1cc(Cl)ccc12 [MI-773]
concentration above which the AlphaLISA signal reached a plateau (p53-MDM2 interaction): exceeded 1 μΜ
Ki (MDM2): 0.88 nM

concentration above which the AlphaLISA signal reached a plateau (p53-MDM2 interaction): exceeded 1 μΜ
SMILES: CCOc1cc(C(C)(C)C)ccc1C1=N[C@@](C)(c2ccc(Cl)cc2)[C@@](C)(c2ccc(Cl)cc2)N1C(=O)N1CCN(CCCS(C)(=O)=O)CC1 [RG-7112]
